Measured values reported in US6673823B2, “Use of peroxisome proliferator activated receptor (PPAR)-γ ligands as a treatment for pituitary tumors and associated conditions, such as Cushing's syndrome” (Cedars-Sinai Medical Center, priority 2002, dated 2004).
Values belong to the compound of their own block, whether it stands above or below them.

Key:
AtT20 cells = assay: TUNEL apoptosis analysis; format: cell-based, mouse
Experimental: Terminal Deoxynucleotidyltransferase-mediated dUTP Nick End Labeling (TUNEL). Apoptosis-induced nuclear DNA fragmentation was detected using the in situ cell death detection kit, TMR red (Roche Diagnostics, Indianapolis, IN) following the manufacturer's protocol. Briefly, 48 hours following treatment with thiazolidinedione compounds (TZDs), AtT20 cells were fixed in 4% paraformaldehyde, permeabilized with 0.1% sodium citrate/ 0.6% Tween 20 (pH 7.4) for 2 min at 4° C. prior to incubation in Tunel reaction mix (TMR red/dNTP mix, TdT, and labeling buffer) for 60 min at 37° C. Slides were washed (3×5 min) in PBS/ Triton/ BSA (0.3%) and visualized on an Olympus BH2 immunofluorescent microscope.

[1] = system: POMC promoter (-706/+64 rat POMC-luc) in AtT20 cells; assay: POMC promoter luciferase reporter transfection; format: cell-based, mouse; settings: CRH 50 nM, luciferase over vehicle control
Source text: Transfection with POMC promoter.

[2] = system: rat GH3 (PRL- and GH-secreting) cells; assay: Cell cycle distribution (FACS, propidium iodide); format: cell-based
Experimental: (§1) Cell Culture. […] Medium was replenished with ligands every 2 days, and cells maintained in serum-containing medium or in serum-free medium for up to 96 hours.
(§2) Cell Cycle Distribution. Following treatments, GH3, αT3, or human pituitary tumor cells were trypsinized, centrifuged (1500 rpm×2 min), washed with PBS, and treated with 20 µg/mL Rnase A (Calbiochem, La Jolla, Cailf.). DNA was stained with 100 μg/ mL propidium iodide (PI) for 30 min at 4° C. and protected from light, prior to analysis with a FACScan (Becton Dickinson, Franklin Lakes, N.J.). DNA histogram analysis was performed using the modFitLT software.
(§3) To determine the functional significance of pituitary tumor PPAR-γ expression, the effects of PPAR-γ ligands was tested on pituitary tumor cells in vitro. Troglitazone or rosiglitazone-treatment ([…]) of GH3 (PRL- and GH-secreting), and αT3 (gonadotroph-secreting) and human pituitary tumor cells for up to 48 hours, in serum-free conditions, or up to 96 hours, for cells maintained in serum-repleted conditions, induced G0-G1 cell-cycle arrest (GH3: control, G1 75±4% vs. ros, G1 85±2%, p=0.009; αT3: control, G1 67±0.5% vs. ros, G1 75±0.5%, p=0.01), and led to decreased number of cells in S-phase (GH3: control, 18±0.05% vs. ros, 12±0.5%, p=0.001; αT3: control, 31±0.5% vs. ros, 16±2.5%, p=0.03) (FIG. 11A).

[3] = system: mouse αT3 gonadotroph cells; assay: Cell cycle distribution (FACS, propidium iodide); format: cell-based
Experimental: as §1, §2, §3

[4] = system: Mouse corticotroph pituitary tumor cells (AtT20); assay: Growth of established corticotroph tumors in athymic nude mice; format: in vivo; settings: oral 150 mg/kg/day, 3 weeks
Source text: The effects of TZD treatment were therefore tested on growth of already established pituitary corticotroph tumors, and steroid hormone levels in vivo. Mouse corticotroph pituitary tumor cells (AtT20) were innoculated subcutaneously in athymic nude mice, and tumors allowed to develop. […] Baseline serum ACTH and corticosterone levels, and tumor volumes were not different in the groups subsequently randomized as control or treated groups (data not shown, p=ns). […] All animals were euthanized at 6 weeks. The phenotypic appearance of the mice was strikingly different, and vehicle-treated mice were wasted, developed skin atrophy and appeared pigmented, with features of hypercorticolism (FIG. 8B).

[5] = system: gonadotroph tumor cells (LβT2); assay: Gonadotroph tumor growth in nude mice; format: in vivo, mouse; settings: oral 150 mg/kg/day, 6 weeks
Source text: FIG. 14A is a representative picture of a rosiglitazone-treated mouse (“Ros”) and an untreated (control) mouse 4 weeks following commencement of administration of treatment. The untreated (control) mouse in the picture developed numerous large visible tumors.
In separate parallel similarly conducted studies, gonadotroph tumor cells (LβT2) were innoculated in mice as above.

[6] = system: rat GH3, murine αT3, and human pituitary tumor cells; assay: Annexin-FITC, FACS and TUNEL apoptosis analysis; format: cell-based; settings: control 33±3, p<0.0002
Experimental: Apoptosis Assay: Annexin FITC by flow Cytometry. GH3, αT3 and human pituitary tumor cells were treated, washed in PBS, trypsinized, centrifuged, and washed prior to incubation with a FITC-labeled monoclonal Annexin antibody and PI for 30 min at room temperature according to manufacturer's instructions (Pharmingen, San Diego, Cailf.). About 1×10^6 cells were prepared and analyzed by flow cytometry, labeled nuclei (PI) were gated on light scatter to remove debris, and the percentage of Annexin-FITC positive cells determined. Annexin-FITC positive cells were also visualized with an Olympus BH2 immunofluorescent microscope.
Terminal Deoxynucleotidyltransferase-mediated dUTP Nick End Labeling (TUNEL). Apoptosis-induced nuclear DNA fragmentation was detected using the in situ cell death detection kit, TMR red (Roche Diagnostics, Indianapolis, Ind.) following the manufacturer's protocol. Briefly, 48 hours following TZD treatment, GH3, αT3 and human pituitary tumor cells were fixed in 4% weight per volume paraformaldehyde, permeabilized with 0.1% sodium citrate/ 0.6% Tween 20 (pH 7.4) for 2 min at 4° C. prior to incubation in Tunel reaction mix (TMR red/dNTP mix, TdT, and labeling buffer) for 60 min at 37° C. Slides were washed (3×5 min) in PBS/Triton/BSA (0.3%) and visualized on a an Olympus BH2 immunofluorescent microscope.

[7] = system: Mouse corticotroph AtT20 pituitary tumor cells; assay: Prevention of subcutaneous corticotroph tumor development in athymic nude mice; format: in vivo; settings: oral 150 mg/kg/day, 4 weeks
human patients = settings: cited from earlier work
[8] = system: patient with Cushing's syndrome; assay: 24 hour urinary free cortisol excretion in a patient with Cushing's syndrome; format: in vivo, human; settings: 8 mg daily, one patient, vs. baseline, p<0.02
[9] = system: Somatolactotroph (GH3) tumor cells; assay: Somato-lactotroph tumor growth in athymic nude mice; format: in vivo, mouse; settings: oral 150 mg/kg/day, 4 weeks
[10] = system: AtT20 mouse pituitary (ACTH-secreting) tumor cells; assay: Cell cycle distribution (FACS, propidium iodide); format: cell-based; settings: 10^−6 to 10^−4 M, up to 48 h serum-free or up to 96 h serum-replete
Experimental: as §1
as §2, with “AtT20” for “GH3, αT3, or human pituitary tumor”, “Calif.).” for “Cailf.).”, “μg/mL” for “μg/ mL”, “40°” for “4°”
To determine the functional significance of pituitary corticotroph PPAR-γ expression, the effects of PPAR-γ ligands were tested on ACTH-secreting pituitary tumor cells in vitro. Troglitazone or rosiglitazone-treatment (10^−6 to 10^−4 M) for up to 48 hours, when cells were maintained in serum-free conditions, or up to 96 hours, when cells were maintained in serum-replete conditions, induced G0-G1 cell-cycle arrest (control, G1 75±4% vs. ros, G1 85±2%, p=0.009), and led to decreased S-phase cells (control, 18±0.05% vs. ros, 12±0.5%, p=0.001) (FIG. 3A).

[11] = system: Mouse gonadotroph pituitary tumor cells (αT3); assay: Growth of established gonadotroph tumors in athymic nude mice; format: in vivo; settings: oral 150 mg/kg/day for 6 weeks, started 3 weeks post-inoculation; vehicle 3.2±0.76, p=0.005
Source text: As patients invariably present with already established and actively growing pituitary tumors, the effects of TZD treatment were therefore tested on growth of already established pituitary gonadotroph tumors in vivo. Mouse gonadotroph pituitary tumor cells (αT3) were inoculated subcutaneously in athymic nude mice, and tumors allowed to develop.

[12] = system: normal athymic Nu/Nu mice; settings: 150 mg/kg for 6 weeks
Source text: A person first presented 2 years ago with bruising, skin striae, 70 lb weight gain and hypertension. Evaluation confirmed the diagnosis of Cushing's syndrome due to an ACTH-secreting pituitary tumor, which was resected by transsphenoidal surgery. The patient presented again one year later with weight gain, labile hypertension, diabetes and confirmed recurrence of Cushing's syndrome.

[13] = system: mouse corticotroph tumor cells (AtT20); assay: Western blot analysis of TZD-treated corticotroph cells; format: cell-based; settings: 10^−5 M, vs. vehicle
Experimental: Western Blot Analysis: AtT20 cells were seeded at about 1×10^6 per well and human pituitary cell cultures were seeded at about 0.5×10^6 per well in 6-well plates for 24 hours prior to treatment with TZD's. Cells were then washed with PBS, and protein samples prepared in RIPA buffer and resolved under reducing conditions on 12% SDS-polyacrylamide gels using standard methods (Elstner, E., et al., Ligands for peroxisome proliferator-activated receptor-γ and retinoic acid receptor inhibit growth and induce apoptosis of human breast cancer cells in vitro and in BNX mice. Proc. Natl. Acad. Sci. USA 95:8806-8811 [1998]). Resolved proteins were transferred to nitrocellulose membranes and probed with antibodies to Bc1-2 (1:500), Bax (1:1000), TRAIL (1:500), p53 (1:1000) (all from Santa-Cruz, Cailf.), p-Rb (Ser 795) (1:1000), cleaved and uncleaved caspase-3 (1:500) (Cell Signalling, Beverly, Mass.) overnight at 4° C. After washing, membranes were incubated with appropriate IgG- horseradish peroxidase conjugates, and immunoreactive protein bands were visualized with ECL (Amersham, Buckinghamshire, UK). Total protein was normalized by reprobing with anti-actin antibody (1:5000, Sigma, St. Louis, Mo.) or Ponceau S staining, and protein bands quantified by densitometry (Video Densitometer model 620, Bio-Rad).

Compound: CRH: Corticotrophin releasing hormone, a potent corticotroph proliferative factor
% apoptosis (TUNEL) (AtT20 cells; CRH 50 nM alone, 24 hours): 4±0.5%
increase in POMC-transcription [1]: 1.6 fold

serum corticosterone, treated vs. untreated normal mice ([12]; unstressed and stressed (data not shown)): similar
Plasma ACTH, baseline (unstressed), Mean±SEM ([12]; controls 434±40, p=ns): 474 ± 33 pg/mL
Plasma ACTH, stress-induced (15 minutes restraint), Mean±SEM ([12]; controls 5278±312, p=ns): 4764 ± 292 pg/mL
Compound: CN(CCOc1ccc(CC2SC(=O)NC2=O)cc1)c1ccccn1 (racemic) [rosiglitazone, (±)-5-[[4-[2-(methyl-2-pyridinylamino)ethoxy]phenyl]methyl]-2,4-thiazolidinedione,(Z)-2-butenedioate]
cells in S-phase ([2]; control 18±0.05%, p=0.001): 12±0.5%
cells in G1 (G0-G1 cell-cycle arrest) ([2]; up to 48 h serum-free or up to 96 h serum-repleted, control 75±4%, p=0.009): 85±2%
cells in S-phase ([3]; control 31±0.5%, p=0.03): 16±2.5%
cells in G1 (G0-G1 cell-cycle arrest) ([3]; control 67±0.5%, p=0.01): 75±0.5%
reduction in plasma ACTH ([4]; vs. controls): 75%
reduction in serum corticosterone levels ([4]; vs. controls): 96%
plasma ACTH, mean±SEM ([4]; controls 3841±308, p=0.002): 978 ± 452 pg/mL
serum corticosterone, mean±SEM ([4]; controls 4304±2593, p<0.05): 181 ± 56 ng/mL
tumor weight ([5]; control 3.44±0.42, P<0.002): 0.81 ± 0.19 g
plasma LH ([5]; control 69±19, p=0.004): 6.8 ± 1.0 ng/mL
% apoptosis ([6]; 10^−5 M): 69±7%
% apoptosis ([6]; 10^−6 M): 47±4%
tumor diameter ([7]; control 1-2 cm): 0.1 cm
serum corticosterone, mean±SEM ([7]; vehicle 785±374, p<0.05): 113 ± 17 ng/mL
plasma ACTH, mean±SEM ([7]; vehicle 2085±847, p<0.05): 98 ± 33 pg/mL
tolerability in humans (human patients; About 20 milligrams per day, sustained periods of time): without adverse effects
clinical surveillance, safety (human patients; more than 4500 patients with type 2 diabetes): safe, effective
decrease of 24 hour urinary free cortisol excretion (UFC) ([8]; after 2 weeks): 33%
decrease of 24 hour urinary free cortisol excretion (UFC) ([8]; after 3 weeks): 55%
% apoptosis (TUNEL) (AtT20 cells; 10^−5 M, control 33±3%, p<0.001): 69±7%
% apoptosis (TUNEL) (AtT20 cells; 10^−6 M, control 33±3%, p<0.001): 47±4%
increase in apoptosis (TUNEL) (AtT20 cells; 48 hours after treatment, vs. control): 2 fold
% apoptosis (TUNEL) (AtT20 cells; CRH 50 nM & ros 10^−5 M (pre-treatment before CRH), p<0.05 vs CRH): 19±3%
tumor diameter [9]: 1-2 cm
tumor weight ([9]; control 0.13±0.01, p=0.008): 0.04 ± 0.01 g
serum GH ([9]; control 545±153, p=0.03): 114 ± 66 ng/mL
serum PRL ([9]; control 656±289, p=ns): 95 ± 58 ng/mL
S-phase cells ([10]; control 18±0.05%, p=0.001): 12±0.5%
cells in G1 (G0-G1 cell-cycle arrest) ([10]; control 75±4%, p=0.009): 85±2%
final tumor weight of established tumors [11]: 0.76 ± 0.29 g

Compound: Cc1c(C)c2c(c(C)c1O)CCC(C)(COc1ccc(CC3SC(=O)NC3=O)cc1)O2 (racemic) [Troglitazone, (±)-5-[4[(6-Hydroxy-2,5,7,8-tetramethylchroman-2-yl)methoxy]-benzyl]-2,4-thiazolidinedione]
expression of pro-apoptotic protein p53 [13]: increased expression
reason for market withdrawal (human patients; withdrawn in March, 2000): reports of liver toxicity in humans
